Data on 2 compounds can be found in patent US9675584B2, “Substituted indoles for the inhibition of PASK” (BioEnergenix, LLC, priority 2011, dated 2017).

This assay deals with T1, hPASK (Homo sapiens, UniProt Q96RG2).
T1 construct: IC50 Kinase Domain; purchased Invitrogen
The assay is described as follows: Biochemical assay for hPASK activity (PAS kinase FRET assay; IC50 kinase domain). The settings on record: PASK kinase domain. As for the experimental part: Biochemical Assay for hPASK Activity
One assay for purified hPASK activity utilizes the Kinase-Glo Luminescent Kinase Assay (Promega), which quantifies the amount of ATP remaining in solution following kinase reaction. The assay is carried out in a 96-well plate format and is performed by adding a volume of Kinase-Glo Reagent (Promega, catalog #V3771) equal to the volume of solution in the well of a completed kinase reaction. Kinase-Glo reagent contains Luciferase and its substrate. After addition to a kinase reaction it allows to measure luminescence. The amount of ATP left in solution at the time of Kinase-Glo Plus addition is directly proportional to the luminescence that is measured in each well, and inversely correlated with kinase activity.
Purified hPASK from insect cells (0.02 μg) is added to a 50 μL reaction mix containing 40 mM HEPES (pH 7.0), 100 mM KCl, 5 mM MgCl2, 1 mM DTT and 1 μg of MBP protein. […] The luminescence is measured as soon as 10 minutes after Kinase-Glo reagent is added. […]
The aim of the FRET assay is to determine the inhibition potential of test compounds on targeted kinase. This assay platform provides a homogenous screening method for measuring kinase activity by quantitating the amount of phospho-substrate in solution following a kinase reaction. […]

T1 sequence (Q96RG2 999-1251 limits assumed): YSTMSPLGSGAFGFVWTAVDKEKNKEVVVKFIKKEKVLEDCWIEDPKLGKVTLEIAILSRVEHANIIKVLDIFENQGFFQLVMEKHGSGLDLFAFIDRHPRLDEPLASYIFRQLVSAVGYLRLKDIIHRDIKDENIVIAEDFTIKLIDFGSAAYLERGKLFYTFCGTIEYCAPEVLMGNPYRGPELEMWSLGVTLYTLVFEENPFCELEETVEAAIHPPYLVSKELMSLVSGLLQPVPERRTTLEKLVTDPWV

One may read the IC50 as the concentration that gives 50% inhibition. As to `O=C(O)c1ccc2c(c1)cc(-c1ccc(F)cc1)n2-c1ccc(F)cc1` [Example 1, 1,2-Bis(4-fluorophenyl)-1H-indole-5-carboxylic acid], the IC50 was ≤ 10 µM.
The same measure for `O=C(O)/C=C/c1cnc(-c2ccc(F)cc2)c(-c2ccc(F)cc2)n1` [Example 2, (E)-3-(5,6-bis(4-fluorophenyl)pyrazin-2-yl)acrylic acid]: ≤ 10 µM.
